Source: patent US10125134B2 (Mirati Therapeutics, Inc., priority 2016, dated 2018)
Like-named read-outs stand apart in the source and are kept apart here.

Experiments:
KRas G12C = KRas G12C (Homo sapiens, UniProt P01116, C118S/C51S/C80L/G12C); experiment: KRas G12C Modification Assay (LCMS detection of covalent adduct); assay type: binding; conditions: normalized percent of control; tested at 5 μM concentration for 3 hours
Procedure, shortened: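 Cys-light KRas G12C mutant protein incubated with compound in K-Ras assay buffer, reactions quenched at set time points with 25 mM acetic acid and analysed by intact-protein LC/MS on a C-3 column. Deconvoluted mass heights expressed as percent of control (POC) relative to compound-free protein.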

[1] = tested on: NCI-H358 cells (express KRas G12C), Phospho-ERK; experiment: Cellular inhibition of KRas G12C: Phospho-ERK in NCI-H358 cells; assay type: cell-based; conditions: pERK(Thr202/Tyr204) normalized with GAPDH, NCI-H358 cells, 3 hours, read-out: IC50
Procedure, shortened: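 IC50 derived by 4-parameter fit of GAPDH-normalized pERK(Thr202/Tyr204) signal, as percent of DMSO control. Signal came from in-cell immunodetection with infrared secondaries after 3 h compound exposure of KRas G12C NCI-H358 cells at 0.5% DMSO.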

| POC (KRas G12C) | Structure (SMILES) | IC50 ([1]; Homo sapiens, NCI-H358, 3 h) | IC50 ([1]; Homo sapiens) | IC50 [1] |
| --- | --- | --- | --- | --- |
| C (“C”>50% POC) | C=CC(=O)N1CCN(c2nc(OC[C@H]3CCCN3CCO)nc3c2CCN(c2cccc4ccccc24)C3)CC1CC#N (stereo partly drawn) [Example 304, 2-[4-[2-[[(2R)-1-(2-hydroxyethyl)pyrrolidin-2-yl]methoxy]-7-(1-naphthyl)-6,8-dihydro-5H-pyrido[3,4-d]pyrimidin-4-yl]-1-prop-2-enoyl-piperazin-2-yl]acetonitrile] | 0.0001 to 1 µM | – | – |
| C (“C”>50% POC) | C=CC(=O)N1CCN(c2nc(OC[C@@H]3CCCN3C)nc3c2CCN(c2cccc(F)c2C(F)(F)F)C3)CC1CC#N (stereo partly drawn) [Example 230, 2-(1-acryloyl-4-(7-(3-fluoro-2-(trifluoromethyl)phenyl)-2-(((S)-1-methylpyrrolidin-2-yl)methoxy)-5,6,7,8-tetrahydropyrido[3,4-d]pyrimidin-4-yl)piperazin-2-yl)acetonitrile] | 0.0001 to 1 µM | – | – |
| C (“C”>50% POC) | C=CC(=O)N1CCN(c2nc(OCCC(=O)N(C)C)nc3c2CCN(c2cccc4cccc(C)c24)C3)C[C@@H]1CC#N [Example 371, (S)-3-((4-(4-acryloyl-3-(cyanomethyl)piperazin-1-yl)-7-(8-methylnaphthalen-1-yl)-5,6,7,8-tetrahydropyrido[3,4-d]pyrimidin-2-yl)oxy)-N,N-dimethylpropanamide] | 0.0001 to 1 µM | – | – |
| C (“C”>50% POC) | C=CC(=O)N1CCN(c2nc(OCCN(C)C)nc3c2CCN(c2cc(O)cc4ccccc24)C3)CC1CO (centres unmarked) [Example 50, 1-(4-(2-(2-(dimethylamino)ethoxy)-7-(3-hydroxynaphthalen-1-yl)-5,6,7,8-tetrahydropyrido[3,4-d]pyrimidin-4-yl)-2-(hydroxymethyl)piperazin-1-yl)prop-2-en-1-one] | > 1 µM | – | – |
| B (“B”>25% POC−≤50% POC) | C=CC(=O)N1CCN(c2nc(-c3cccc(CN4CCOCC4)c3)nc3c2CCN(c2cc(O)cc4ccccc24)C3)CC1 [Example 186] | – | > 1 µM | – |
| C (“C”>50% POC) | C=CC(=O)N1CCN(c2nc(OC[C@H]3C[C@@H](O)CN3C)nc3c2CCN(c2cccc(F)c2C(F)(F)F)C3)CC1CC#N (stereo partly drawn) [Example 415, 2-(1-acryloyl-4-(7-(3-fluoro-2-(trifluoromethyl)phenyl)-2-(((2R,4R)-4-hydroxy-1-methylpyrrolidin-2-yl)methoxy)-5,6,7,8-tetrahydropyrido[3,4-d]pyrimidin-4-yl)piperazin-2-yl)acetonitrile] | 0.0001 to 1 µM | – | – |
| A (“A”≤25% POC) | C=CC(=O)N1CCN(c2nc(OC[C@@H]3CCCN3C)nc3c2CCN(c2cccc4ccc(OC)cc24)C3)CC1CC#N (stereo partly drawn) [Example 288, 2-[4-[7-(7-methoxy-1-naphthyl)-2-[[(2S)-1-methylpyrrolidin-2-yl]methoxy]-6,8-dihydro-5H-pyrido[3,4-d]pyrimidin-4-yl]-1-prop-2-enoyl-piperazin-2-yl]acetonitrile] | – | – | > 1 µM |
| C (“C”>50% POC) | C=CC(=O)N1CCN(c2nc(OC[C@H]3CCC(C)(C)N3)nc3c2CCN(c2cc(O)cc4ccccc24)C3)CC1 [Example 174, (R)-1-(4-(2-((5,5-dimethylpyrrolidin-2-yl)methoxy)-7-(3-hydroxynaphthalen-1-yl)-5,6,7,8-tetrahydropyrido[3,4-d]pyrimidin-4-yl)piperazin-1-yl)prop-2-en-1-one] | > 1 µM | – | – |
| C (“C”>50% POC) | C=CC(=O)N1CCN(c2nc(OC[C@@H]3CCCN3C)nc3c2CCN(c2cc(F)ccc2OC(F)(F)F)C3)CC1CC#N (stereo partly drawn) [Example 225, 2-(1-acryloyl-4-(7-(5-fluoro-2-(trifluoromethoxy)phenyl)-2-(((S)-1-methylpyrrolidin-2-yl)methoxy)-5,6,7,8-tetrahydropyrido[3,4-d]pyrimidin-4-yl)piperazin-2-yl)acetonitrile] | 0.0001 to 1 µM | – | – |
| C (“C”>50% POC) | C=CC(=O)N1CCN(c2nc(OC[C@@H]3CCCN3C)nc3c2CCN(c2ccc(F)c(C)c2C)C3)C[C@@H]1CC#N [Example 423, 2-((S)-1-acryloyl-4-(7-(4-fluoro-2,3-dimethylphenyl)-2-(((S)-1-methylpyrrolidin-2-yl)methoxy)-5,6,7,8-tetrahydropyrido[3,4-d]pyrimidin-4-yl)piperazin-2-yl)acetonitrile] | 0.0001 to 1 µM | – | – |
| C (“C”>50% POC) | C=CC(=O)N1CCN(c2nc(OC[C@@H]3CCCN3C)nc3c2CCN(c2cccc(Cl)c2Cl)C3)C[C@@H]1CC#N [Example 420, 2-((S)-1-acryloyl-4-(7-(2,3-dichlorophenyl)-2-(((S)-1-methylpyrrolidin-2-yl)methoxy)-5,6,7,8-tetrahydropyrido[3,4-d]pyrimidin-4-yl)piperazin-2-yl)acetonitrile] | 0.0001 to 1 µM | – | – |
| C (“C”>50% POC) | C=CC(=O)N1CCN(c2nc(OCCCN3CCN(C(C)=O)CC3)nc3c2CCN(c2cc(O)cc4ccccc24)C3)CC1 [Example 135, 1-[4-[2-[3-(4-acetylpiperazin-1-yl)propoxy]-7-(3-hydroxy-1-naphthyl)-6,8-dihydro-5H-pyrido[3,4-d]pyrimidin-4-yl]piperazin-1-yl]prop-2-en-1-one] | 0.0001 to 1 µM | – | – |
| C (“C”>50% POC) | C=CC(=O)N1CCN(c2nc(OCCN3CCC(F)(F)CC3)nc3c2CCN(c2cc(O)cc4ccccc24)C3)CC1 [Example 109, 1-(4-(2-(2-(4,4-difluoropiperidin-1-yl)ethoxy)-7-(3-hydroxynaphthalen-1-yl)-5,6,7,8-tetrahydropyrido[3,4-d]pyrimidin-4-yl)piperazin-1-yl)prop-2-en-1-one] | > 1 µM | – | – |
| C (“C”>50% POC) | C=CC(=O)N1CCN(c2nc(OC[C@@H]3CCCN3C)nc3c2CCN(c2cncc(Cl)c2C)C3)C[C@@H]1CC#N [Example 387, 2-((S)-1-acryloyl-4-(7-(5-chloro-4-methylpyridin-3-yl)-2-(((S)-1-methylpyrrolidin-2-yl)methoxy)-5,6,7,8-tetrahydropyrido[3,4-d]pyrimidin-4-yl)piperazin-2-yl)acetonitrile] | 0.0001 to 1 µM | – | – |
| C (“C”>50% POC) | C=CC(=O)N1CCN(c2nc(OC[C@@H]3CCCN3C)nc3c2CCN(c2cccc(F)c2F)C3)C[C@@H]1CC#N [Example 406, 2-((S)-1-acryloyl-4-(7-(2,3-difluorophenyl)-2-(((S)-1-methylpyrrolidin-2-yl)methoxy)-5,6,7,8-tetrahydropyrido[3,4-d]pyrimidin-4-yl)piperazin-2-yl)acetonitrile] | > 1 µM | – | – |
| C (“C”>50% POC) | C=CC(=O)N1CCN(c2nc(OC[C@@]3(C)CCCN3C)nc3c2CCN(c2cccc(F)c2C(F)(F)F)C3)CC1CC#N (stereo partly drawn) [Example 417, 2-(1-acryloyl-4-(2-(((R)-1,2-dimethylpyrrolidin-2-yl)methoxy)-7-(3-fluoro-2-(trifluoromethyl)phenyl)-5,6,7,8-tetrahydropyrido[3,4-d]pyrimidin-4-yl)piperazin-2-yl)acetonitrile] | – | 0.0001 to 1 µM | – |
| C (“C”>50% POC) | C=CC(=O)N1CCN(c2nc(OC[C@@H]3CCC(C)(C)N3C)nc3c2CCN(c2cccc4ccccc24)C3)CC1CC#N (stereo partly drawn) [Example 301, 2-[4-[7-(1-naphthyl)-2-[[(2S)-1,5,5-trimethylpyrrolidin-2-yl]methoxy]-6,8-dihydro-5H-pyrido[3,4-d]pyrimidin-4-yl]-1-prop-2-enoyl-piperazin-2-yl]acetonitrile] | 0.0001 to 1 µM | – | – |
| A (“A”≤25% POC) | C=CC(=O)N1CCN(c2nc(O[C@H](C)CN(C)C)nc3c2CCN(c2cc(O)ccc2C(F)(F)F)C3)CC1 [Example 79, (R)-1-(4-(2-((1-(dimethylamino)propan-2-yl)oxy)-7-(5-hydroxy-2-(trifluoromethyl)phenyl)-5,6,7,8-tetrahydropyrido[3,4-d]pyrimidin-4-yl)piperazin-1-yl)prop-2-en-1-one] | – | > 1 µM | – |
| C (“C”>50% POC) | C=CC(=O)N1CCN(c2nc(O[C@H](C)CN(C)C)nc3c2CCN(c2cc(O)c(F)c4ccccc24)C3)CC1 [Example 124, (R)-1-(4-(2-((1-(dimethylamino)propan-2-yl)oxy)-7-(4-fluoro-3-hydroxynaphthalen-1-yl)-5,6,7,8-tetrahydropyrido[3,4-d]pyrimidin-4-yl)piperazin-1-yl)prop-2-en-1-one] | – | > 1 µM | – |
| C (“C”>50% POC) | C=CC(=O)N1CCN(c2nc(OC[C@@H]3CCCN3C)nc3c2CCN(c2cccc4cccc(C(F)(F)F)c24)C3)C[C@@H]1CC#N [Example 433, 2-((S)-1-acryloyl-4-(2-(((S)-1-methylpyrrolidin-2-yl)methoxy)-7-(8-(trifluoromethyl)naphthalen-1-yl)-5,6,7,8-tetrahydropyrido[3,4-d]pyrimidin-4-yl)piperazin-2-yl)acetonitrile] | 0.0001 to 1 µM | – | – |

| Structure (SMILES) | POC (KRas G12C) | IC50 ([1]; Homo sapiens, NCI-H358, 3 h) | IC50 ([1]; Homo sapiens) | IC50 [1] |
| --- | --- | --- | --- | --- |
| C=CC(=O)N1CCN(c2nc(OC[C@@H]3CCN(C)C3)nc3c2CCN(c2cccc4ccccc24)C3)CC1CC#N (stereo partly drawn) [Example 177, 2-[4-[2-[[(3R)-1-methylpyrrolidin-3-yl]methoxy]-7-(1-naphthyl)-6,8-dihydro-5H-pyrido[3,4-d]pyrimidin-4-yl]-1-prop-2-enoyl-piperazin-2-yl]acetonitrile] | C (“C”>50% POC) | – | 0.0001 to 1 µM | – |
| C=CC(=O)N1CCN(c2nc(OC[C@H]3CCCN3C)nc3c2CCN(c2cccc4ccccc24)C3)CC1CC#N (stereo partly drawn) [Example 183, 2-[4-[2-[[(2R)-1-methylpyrrolidin-2-yl]methoxy]-7-(1-naphthyl)-6,8-dihydro-5H-pyrido[3,4-d]pyrimidin-4-yl]-1-prop-2-enoyl-piperazin-2-yl]acetonitrile] | C (“C”>50% POC) | – | 0.0001 to 1 µM | – |
